Results from publication PMC10035389, “Safety, Tolerability, and Pharmacokinetics of TAK-931, a Cell Division Cycle 7 Inhibitor, in Patients with Advanced Solid Tumors: A Phase I First-in-Human Study” (Cancer Research Communications, 2022).
Like-named read-outs stand apart in the source and are kept apart here.

Assay: Plasma and urine pharmacokinetics, noncompartmental analysis
Type: in vivo, human
Conditions: for half-life / Tmax: human, plasma; for half-life: po; for Tmax: oral
Experimental: DLTs included: cycle 1 grade ≥3 hematologic and non-hematologic events or grade 2 non-hematologic events considered by the investigator to be TAK-931-related, grade 2 ejection fraction decrease, >2 weeks delay in initiating cycle 2 (1 week for schedules D and E), and >50% TAK-931 dose reduction in cycle 1 due to treatment-related adverse events (AEs; see Supplementary Materials and Methods for full DLT criteria). Toxicity was evaluated by NCI Common Terminology Criteria for Adverse Events (version 4.03). Tumor response was measured using the RECIST (version 1.1) ([16]). Serial blood samples for pharmacokinetic analysis were collected during cycle 1 on days 1 and 7 (schedule B), 1 and 8 (schedules A and D), or 1 and 9 (schedule E). Pharmacokinetic parameters were estimated from concentration–time profiles using noncompartmental methods with WinNonlin® Phoenix™ version 8.1 (Certara, Princeton, NJ). pMCM2 was detected semiquantitatively by IHC of histologic sections of formalin-fixed, paraffin-embedded skin and tumor biopsies using anti-pMCM2 (3378-1, Epitomics Inc.; ref. [15]). Quantitative image analysis determined pMCM2 levels as “histologic score nuclei (H-score).” Skin punch biopsies (2–4 mm) were obtained during screening or predose on cycle 1, day 1 and for patients in schedules A, B, and D, postdose on any drug dosing day after 3 consecutive dosing days in cycle 1. A postdose skin biopsy was obtained on day 9 in schedule E. Fresh tumor biopsy pairs were collected predose and postdose on any dosing day after the completion of 3 consecutive dosing days in cycle 1 from patients who received doses considered to have biological effect.
The safety population included patients who received ≥1 dose of TAK-931. The pharmacodynamic-evaluable population comprised patients from the safety population with a baseline and ≥1 additional postbaseline biopsy sample that was suitable for pMCM2 analysis. The pharmacokinetic-evaluable population included patients with sufficient dosing and TAK-931 concentration–time data to estimate pharmacokinetic parameters. The response-evaluable population included patients in the safety population with measurable disease at baseline and ≥1 postbaseline response assessment.

Q: Which results are given for `Cc1[nH]ncc1-c1cc2nc([C@@H]3CC4CCN3CC4)[nH]c(=O)c2s1` [TAK-931, simurosertib]?
A: Accumulation following higher doses (120 and 150 mg): minor accumulation; Renal clearance (CLr) as share of total apparent clearance (estimated amount excreted in urine, n = 79): approximately 8%; half-life (50 mg, oral administration of 50 mg, read-out: Terminal half-life (converted)): ~5 h; half-life (oral administration, read-out: Estimated T1/2): 5 to 6 h; half-life (oral administration, read-out: Mean half-life (T1/2)): 4.58 to 6.53 h; Tmax (50 mg dose, read-out: Tmax): ~2 h; Tmax (postdose, over the dose range of 20–50 mg, read-out: Median time to maximum plasma concentration (Tmax)): 1 to 4 h; Systemic exposures between day 1 and days 7, 8, or 9 (multiple dosing): mostly unchanged; Plasma exposure vs dose (single- and multiple-dose administration over 20–50 mg): approximately dose proportional; Systemic exposure vs dose (dose-normalized AUC24) (single- and multiple-dose administration over the range 20–150 mg): approximately dose proportional
